Measurements as given in PMC11502502 (Nature cancer, 2024).
Values joined by “and” are separate entries in the source; they are usually repeats but may differ in a detail not shown here. Identical values can stand only once. Like-named read-outs stand apart in the source and are kept apart here.

Assays:
A-431 = experiment: CellTiter-Glo cell viability, A-431; assay type: cell-based; settings: Homo sapiens, A-431, 72 h
PA-1 = experiment: CellTiter-Glo cell viability, PA-1; assay type: cell-based; settings: Homo sapiens, PA-1, 72 h
SU-DHL-10 = experiment: CellTiter-Glo cell viability, SU-DHL-10; assay type: cell-based; settings: Homo sapiens, SU-DHL10, 72 h
NCI-H82 = experiment: CellTiter-Glo cell viability, NCI-H82; assay type: cell-based; settings: Homo sapiens, NCI-H82, 72 h
MOLP-8 = experiment: CellTiter-Glo cell viability, MOLP-8; assay type: cell-based; settings: Homo sapiens, MOLP-8, 72 h
HCC-1187 = experiment: CellTiter-Glo cell viability, HCC-1187; assay type: cell-based; settings: Homo sapiens, HCC1187, 72 h
A-427 = experiment: CellTiter-Glo cell viability, A-427; assay type: cell-based; settings: Homo sapiens, A-427, 72 h
SNU-16 = experiment: CellTiter-Glo cell viability, SNU-16; assay type: cell-based; settings: Homo sapiens, SNU-16, 72 h
AMO-1 = experiment: CellTiter-Glo cell viability, AMO-1; assay type: cell-based; settings: Homo sapiens, AMO1, 72 h
KMS-12-PE = experiment: CellTiter-Glo cell viability, KMS-12-PE; assay type: cell-based; settings: Homo sapiens, 72 h
[1] = Protein-binding assay with equilibrium dialysis in cell culture medium; assay type: in vitro ADME; settings: bovine, cell culture medium with 10% fetal calf serum
RPMI 8226 = experiment: CellTiter-Glo cell viability, RPMI 8226; assay type: cell-based; settings: Homo sapiens, RPMI-8226, 72 h
JJN-3 = experiment: CellTiter-Glo cell viability, JJN-3; assay type: cell-based; settings: Homo sapiens, JJN-3, 72 h
DMS114 = experiment: CellTiter-Glo cell viability, DMS114; assay type: cell-based; settings: Homo sapiens, DMS-114, 72 h
HMC1–8 = experiment: CellTiter-Glo cell viability, HMC1–8; assay type: cell-based; settings: Homo sapiens, 72 h
HCC-2157 = experiment: CellTiter-Glo cell viability, HCC-2157; assay type: cell-based; settings: Homo sapiens, HCC2157, 72 h
KMS-12-BM = experiment: CellTiter-Glo cell viability, KMS-12-BM; assay type: cell-based; settings: Homo sapiens, 72 h
OPM-2 = experiment: CellTiter-Glo cell viability, OPM-2; assay type: cell-based; settings: Homo sapiens, OPM-2, 72 h
SNU398 = experiment: CellTiter-Glo cell viability, SNU398; assay type: cell-based; settings: Homo sapiens, SNU-398, 72 h
SU-DHL-5 = experiment: CellTiter-Glo cell viability, SU-DHL-5; assay type: cell-based; settings: Homo sapiens, SU-DHL-5, 72 h
SNU398 (HCC) xenografts = experiment: SNU398 liver cancer xenograft efficacy; assay type: in vivo; settings: SNU-398 (HCC) tumor bearing mice, Regorafinib 30 mg/kg qd po, one value per animal
[2] = tested on: hiPS cell-derived cardiomyocytes; experiment: hiPS cell-derived cardiomyocytes: DAPI-stained number of nuclei; assay type: cell-based, human
[3] = tested on: hiPS cell-derived cardiomyocytes; experiment: hiPS cell-derived cardiomyocytes: activation of caspases 3 and 7; assay type: cell-based, human; settings: 1 μM, 72 h
[4] = tested on: hiPS cell-derived cardiomyocytes; experiment: hiPS cell-derived cardiomyocytes: extracellular LDH; assay type: cell-based, human; settings: 1 μM, 72 h
[5] = tested on: hiPS cell-derived cardiomyocytes; experiment: hiPS cell-derived cardiomyocytes: extracellular troponin I (AlphaLISA); assay type: cell-based, human
[6] = tested on: hiPS cell-derived cardiomyocytes; experiment: hiPS cell-derived cardiomyocytes: cell viability (ATP levels, cell titer glow)
[7] = read-out: Anti-proliferative IC50
[8] = read-out: Antiproliferative IC50u

Work on `CO[C@H]1/C=C/C[C@H](C)[C@@H](C)S(=O)(=O)NC(=O)c2ccc3c(c2)N(C[C@@H]2CC[C@H]21)C[C@@]1(CCCc2cc(Cl)ccc21)CO3` [AMG176] yielded an IC50 (A-431; [7]) of 641 nM, an IC50 (A-431; [8]) of 6.6 nM and an IC50 (PA-1; [7]) of 631 nM. The IC50 (PA-1; [8]) was 6.5 nM, the IC50 (SU-DHL-10; [7]) was 87 nM and the IC50 (SU-DHL-10; [8]) was 0.9 nM. For the same compound, the IC50 (NCI-H82; [7]) was 476 nM, the IC50 (NCI-H82; [8]) was 4.9 nM and the IC50 (MOLP-8; [7]) was 223 nM. It also gave an IC50 (MOLP-8; [8]) of 2.3 nM, an IC50 (HCC-1187; [7]) of 330 nM and an IC50 (HCC-1187; [8]) of 3.4 nM. It also gave an IC50 (A-427; [7]) of 563 nM, an IC50 (A-427; [8]) of 5.8 nM and an IC50 (SNU-16; [7]) of 583 nM. The IC50 (SNU-16; [8]) was 6 nM, the IC50 (AMO-1; [7]) was 126 nM and the IC50 (AMO-1; [8]) was 1.3 nM. It also gave an IC50 (KMS-12-PE; [7]) of 1160 nM, an IC50 (KMS-12-PE; [8]) of 12 nM and a fraction unbound [1] of 0.01. For the same compound, the IC50 (RPMI 8226; [7]) was 291 nM, the IC50 (RPMI 8226; [8]) was 3 nM and the IC50 (JJN-3; [7]) was 553 nM. It also gave an IC50 (JJN-3; [8]) of 5.7 nM, an IC50 (DMS114; [7]) of 282 nM and an IC50 (DMS114; [8]) of 2.9 nM. The IC50 (HMC1–8; [7]) was 583 nM, the IC50 (HMC1–8; [8]) was 6 nM and the IC50 (HCC-2157; [7]) was 262 nM. It also gave an IC50 (HCC-2157; [8]) of 2.7 nM, an IC50 (KMS-12-BM; [7]) of 184 nM and an IC50 (KMS-12-BM; [8]) of 1.9 nM. For the same compound, the IC50 (OPM-2; [7]) was 117 nM, the IC50 (OPM-2; [8]) was 1.2 nM and the IC50 (SNU398; [7]) was 495 nM. The IC50 (SNU398; [8]) was 5.1 nM, the IC50 (SU-DHL-5; [7]) was 117 nM and the IC50 (SU-DHL-5; [8]) was 1.2 nM.

With `CNC(=O)c1cc(Oc2ccc(NC(=O)Nc3ccc(Cl)c(C(F)(F)F)c3)c(F)c2)ccn1` [Regorafinib] the “anti-tumor efficacy, individual measurements” value (“anti-tumor efficacy” for short) (SNU398 (HCC) xenografts; day 1 post treatment start) was 63.45 and 60.8 and 64.88 and 117.14 and 74.08 and 111.9 and 95.85, the “anti-tumor efficacy” value (SNU398 (HCC) xenografts; day 3 post treatment start) was 72 and 76.25 and 72.91 and 127.45 and 81.33 and 119.22 and 106.01 and the “anti-tumor efficacy” value (SNU398 (HCC) xenografts; day 7 post treatment start) was 83.42 and 75.99 and 78.47 and 145.78 and 87.63 and 117.37. The “anti-tumor efficacy” value (SNU398 (HCC) xenografts; day 8 post treatment start) was 100.66 and 81.04 and 87.14 and 150.75 and 99.27 and 129.84, the “anti-tumor efficacy” value (SNU398 (HCC) xenografts; day 10 post treatment start) was 89.75 and 86.89 and 87.88 and 152.45 and 93.82 and 132.88 and the “anti-tumor efficacy” value (SNU398 (HCC) xenografts; day 13 post treatment start) was 96.32 and 85.08 and 98.92 and 145.11 and 103.54 and 167.23.

Work on `Cc1c2c(nn1C)CSCc1cc(n(C)n1)CSc1cc(c3ccccc3c1)OCCCc1c(C(=O)O)n(C)c3c-2c(Cl)ccc13` [AZD5991] yielded an IC50 (A-431; [7]) of 219 nM, an IC50 (A-431; [8]) of 4.6 nM and an IC50 (PA-1; [7]) of 105 nM. It also gave an IC50 (PA-1; [8]) of 2.2 nM, an IC50 (NCI-H82; [7]) of 162 nM and an IC50 (NCI-H82; [8]) of 3.4 nM. It also gave an IC50 (MOLP-8; [7]) of 38 nM, an IC50 (MOLP-8; [8]) of 0.8 nM and an IC50 (HCC-1187; [7]) of 52 nM. For the same compound, the IC50 (HCC-1187; [8]) was 1.1 nM, the IC50 (A-427; [7]) was 52 nM and the IC50 (A-427; [8]) was 1.1 nM. It also gave an IC50 (SNU-16; [7]) of 267 nM, an IC50 (SNU-16; [8]) of 5.6 nM and an IC50 (AMO-1; [7]) of 57 nM. For the same compound, the IC50 (AMO-1; [8]) was 1.2 nM, the IC50 (KMS-12-PE; [7]) was 210 nM and the IC50 (KMS-12-PE; [8]) was 4.4 nM. It also gave a fraction unbound [1] of 0.021, an IC50 (RPMI 8226; [7]) of 62 nM and an IC50 (RPMI 8226; [8]) of 1.3 nM. For the same compound, the IC50 (JJN-3; [7]) was 71 nM, the IC50 (JJN-3; [8]) was 1.5 nM and the IC50 (DMS114; [7]) was 71 nM. For the same compound, the IC50 (DMS114; [8]) was 1.5 nM, the IC50 (HMC1–8; [7]) was 329 nM and the IC50 (HMC1–8; [8]) was 6.9 nM. The IC50 (HCC-2157; [7]) was 95 nM, the IC50 (HCC-2157; [8]) was 2 nM and the IC50 (KMS-12-BM; [7]) was 33 nM. The IC50 (KMS-12-BM; [8]) was 0.7 nM, the IC50 (OPM-2; [7]) was 33 nM and the IC50 (OPM-2; [8]) was 0.7 nM. The IC50 (SNU398; [7]) was 52 nM, the IC50 (SNU398; [8]) was 1.1 nM and the IC50 (SU-DHL-5; [7]) was 14 nM. For the same compound, the IC50 (SU-DHL-5; [8]) was 0.3 nM.

With `COc1cccc2c1C(=O)c1c(O)c3c(c(O)c1C2=O)C[C@@](O)(C(=O)CO)C[C@@H]3O[C@H]1C[C@H](N)[C@H](O)[C@H](C)O1` [doxorubicin] the Nuclear counts ([2]; 1 μM, 72 h) was “decreased nuclear counts”, the “DAPI stained number of nuclei” value ([2]; Doxorubicin - wash, 3h) was 0.4105 and 0.3857 and 0.4592 and the “DAPI stained number of nuclei” value ([2]; Doxorubicin - wash, 6h) was 0.9721 and 0.9984 and 0.8453. The “DAPI stained number of nuclei” value ([2]; Doxorubicin - wash, 24h) was 0.5586 and 0.4572 and 0.5102, the “DAPI stained number of nuclei” value ([2]; Doxorubicin - wash, 48h) was 0.8181 and 0.8435 and 0.8812 and the “DAPI stained number of nuclei” value ([2]; Doxorubicin - wash, 72h) was 0.2447 and 0.2247 and 0.2518. For the same compound, the “DAPI stained number of nuclei” value ([2]; Doxorubicin, 3h) was 0.3508 and 0.3671 and 0.4582, the “DAPI stained number of nuclei” value ([2]; Doxorubicin, 6h) was 0.9886 and 0.9511 and 0.985 and the “DAPI stained number of nuclei” value ([2]; Doxorubicin, 24h) was 0.3141 and 0.2601 and 0.2627. The “DAPI stained number of nuclei” value ([2]; Doxorubicin, 48h) was 0.2344 and 0.4107 and 0.4046, the “Caspase 3 activation” value [3] was “time-dependent activation of caspase 3” and the LDH release [4] was “increased LDH release”. The “Extracellular troponin I” value ([5]; Doxorubicin - wash, 48h) was 5.76 and 7.195 and 6.893, the “Extracellular troponin I” value ([5]; Doxorubicin - wash, 72h) was 12.7295 and 11.4567 and 13.7321 and the “Extracellular troponin I” value ([5]; Doxorubicin, 3h) was 0.7061 and 0.6741 and 0.6927. For the same compound, the “Extracellular troponin I” value ([5]; Doxorubicin, 6h) was 2.491 and 1.893 and 3.419, the “Extracellular troponin I” value ([5]; Doxorubicin, 48h) was 9.842 and 16.5962 and 13.2372 and the “Extracellular troponin I” value ([5]; Doxorubicin, 72h) was 30.5761 and 27.6931 and 29.1909. The ATP levels ([6]; 1 μM, 72 h) was “reduced ATP levels”, the “Cell viability via cell titer glow” value ([6]; Doxorubicin - wash, 3h) was 0.9604 and 0.941 and 0.9405 and the “Cell viability via cell titer glow” value ([6]; Doxorubicin - wash, 6h) was 0.9905 and 0.9749 and 0.9586. The “Cell viability via cell titer glow” value ([6]; Doxorubicin - wash, 24h) was 0.9393 and 0.938 and 0.976, the “Cell viability via cell titer glow” value ([6]; Doxorubicin - wash, 48h) was 0.6883 and 0.7253 and 0.7219 and the “Cell viability via cell titer glow” value ([6]; Doxorubicin - wash, 72h) was 0.5187 and 0.5467 and 0.5116. The “Cell viability via cell titer glow” value ([6]; Doxorubicin, 3h) was 0.9456 and 0.9453 and 0.963, the “Cell viability via cell titer glow” value ([6]; Doxorubicin, 6h) was 0.9853 and 1.049 and 1.001 and the “Cell viability via cell titer glow” value ([6]; Doxorubicin, 24h) was 0.9003 and 0.8578 and 0.8897. For the same compound, the “Cell viability via cell titer glow” value ([6]; Doxorubicin, 48h) was 0.5823 and 0.6777 and 0.6323 and the “Cell viability via cell titer glow” value ([6]; Doxorubicin, 72h) was 0.4355 and 0.3955 and 0.4606.
